Ki and CPM data for two compounds are collected here from paper PMC10539439 (Pharmacological Reports, 2023).

“And” between values parts separate entries of the source, which are not always exact repeats. Equal values may be shown once. Read-outs that look alike come from different tables or passages of the source.

By Ki is commonly meant the equilibrium dissociation constant of an inhibitor or competing ligand from its target.

The target of one assay is α1-adrenoceptor. As to the kind of experiment: Competitive radioligand-binding assay, [3H]prazosin. On the set-up: species or system rat. On the procedure: (§1) 10 mM stock solutions of test compounds were prepared in DMSO. Serial dilutions of compounds were prepared in 96-well microplate in assay buffers using an automated pipetting system epMotion 5070 (Eppendorf, Poland). Each compound was tested in 6 concentrations of 1.0E-05 to 1.0E-10 M (final concentration).
(§2) Affinity towards α1- and α2-adrenoceptors was evaluated using the competitive radioligand-binding assay. Experiments were conducted in the rat cerebral cortex. Radioligand [3H]prazosin (84,2 Ci/mmol, α1-adrenoceptor, PerkinElmer, Poland, NET823001MC) and [3H]clonidine (70.5 Ci/mmol, α2-adrenoceptor, PerkinElmer, Poland, NET613250UC) were used. The membrane preparation and the assay procedure were carried out accordingly as previously published. Radioactivity was counted on the MicroBeta2 scintillation counter (PerkinElmer, Poland). Data were fitted to a one-site curve-fitting equation with Prism 8 (GraphPad Software, USA), and Ki values were estimated from the Cheng–Prusoff equation.

The target in a further assay is T1, α2-adrenoceptor (Rattus norvegicus, UniProt P22909).
T1 sequence (P22909 1-465): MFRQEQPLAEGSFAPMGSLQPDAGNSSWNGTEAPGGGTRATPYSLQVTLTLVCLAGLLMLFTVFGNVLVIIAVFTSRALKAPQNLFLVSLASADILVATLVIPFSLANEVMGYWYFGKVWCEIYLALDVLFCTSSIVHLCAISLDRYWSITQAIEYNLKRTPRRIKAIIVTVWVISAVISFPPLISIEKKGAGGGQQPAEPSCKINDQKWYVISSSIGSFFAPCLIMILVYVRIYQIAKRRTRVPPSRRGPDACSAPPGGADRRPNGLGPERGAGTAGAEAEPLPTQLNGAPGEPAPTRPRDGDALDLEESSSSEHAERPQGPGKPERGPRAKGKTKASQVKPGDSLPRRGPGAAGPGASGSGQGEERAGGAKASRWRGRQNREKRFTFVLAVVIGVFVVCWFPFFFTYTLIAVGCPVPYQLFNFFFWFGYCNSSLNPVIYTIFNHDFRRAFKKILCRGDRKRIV
Description: Competitive radioligand-binding assay, [3H]clonidine. Particulars: ADRA2, experiments 1-3, duplicates. On the procedure: as §1, §2

For the compound `Cc1ccc(N(CC2=NCCN2)c2cccc(O)c2)cc1` [Phentolamine], the inhibitory constant (Ki) at α1-adrenoceptor (ADRA1, experiment 1, 2, 3, read-out: Ki, single experiments) is 14.9 nM and 9.23 nM and 10.1 nM; at α1-adrenoceptor ([3H] prazosin, rat cerebral cortex, mean ± SEM, n = 3, read-out: Ki), 11.3 ± 1.7 nM.

For `CNC[C@H](O)c1cccc(O)c1` [Phenylephrine], the CPM was 141 CPM and 116 CPM and 96 CPM and 109 CPM and 123 CPM and 92 CPM at α2-adrenoceptor (log of molar concentration -5); 126 CPM and 136 CPM and 132 CPM and 152 CPM and 190 CPM and 224 CPM on α2-adrenoceptor (log of molar concentration -6); 392 CPM and 260 CPM and 300 CPM and 297 CPM and 293 CPM on α2-adrenoceptor (log of molar concentration -7); 433 CPM and 441 CPM and 410 CPM and 390 CPM and 339 CPM and 367 CPM at α2-adrenoceptor (log of molar concentration -8); 380 CPM and 398 CPM and 394 CPM and 410 CPM and 367 CPM and 391 CPM at α2-adrenoceptor (log of molar concentration -9); 502 CPM and 429 CPM and 290 CPM and 400 CPM and 415 CPM and 423 CPM at α2-adrenoceptor (log of molar concentration -10).
